Data as given in paper PMC3119665, “A New Drug Design Targeting the Adenosinergic System for Huntington's Disease” (PLoS ONE, 2011).
pIC50, pKi: −log10 of the molar value.

Tests used:
Somatostatin sst2 = molecular target: T1, Somatostatin sst2 (Homo sapiens, UniProt P30874); test: Radioligand binding panel (Table S1); settings: 10 μM T1-11, n 2
T1 construct: purchased MDS Pharma Services Taiwan

A3 adenosine receptor = molecular target: T2, A3 adenosine receptor (Homo sapiens, UniProt P0DMS8); test: Radioligand binding assay
T2 construct: host or cells: CHO-K1
T2 sequence (P0DMS8 1-318): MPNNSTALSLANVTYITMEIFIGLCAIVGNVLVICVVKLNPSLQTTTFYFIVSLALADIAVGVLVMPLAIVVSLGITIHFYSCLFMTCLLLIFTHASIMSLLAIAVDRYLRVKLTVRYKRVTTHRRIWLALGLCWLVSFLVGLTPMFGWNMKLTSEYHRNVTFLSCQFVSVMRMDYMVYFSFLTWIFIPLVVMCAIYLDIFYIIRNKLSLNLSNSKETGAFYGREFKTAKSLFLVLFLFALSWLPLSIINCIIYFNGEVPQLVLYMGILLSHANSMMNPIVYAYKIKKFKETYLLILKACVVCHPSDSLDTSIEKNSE

Prostanoid EP4 = molecular target: T3, Prostanoid EP4 (Homo sapiens, UniProt P35408); test: Radioligand binding panel (Table S1); settings: 10 μM T1-11, n 2
T3 construct: purchased MDS Pharma Services Taiwan
T3 sequence (P35408 whole entry): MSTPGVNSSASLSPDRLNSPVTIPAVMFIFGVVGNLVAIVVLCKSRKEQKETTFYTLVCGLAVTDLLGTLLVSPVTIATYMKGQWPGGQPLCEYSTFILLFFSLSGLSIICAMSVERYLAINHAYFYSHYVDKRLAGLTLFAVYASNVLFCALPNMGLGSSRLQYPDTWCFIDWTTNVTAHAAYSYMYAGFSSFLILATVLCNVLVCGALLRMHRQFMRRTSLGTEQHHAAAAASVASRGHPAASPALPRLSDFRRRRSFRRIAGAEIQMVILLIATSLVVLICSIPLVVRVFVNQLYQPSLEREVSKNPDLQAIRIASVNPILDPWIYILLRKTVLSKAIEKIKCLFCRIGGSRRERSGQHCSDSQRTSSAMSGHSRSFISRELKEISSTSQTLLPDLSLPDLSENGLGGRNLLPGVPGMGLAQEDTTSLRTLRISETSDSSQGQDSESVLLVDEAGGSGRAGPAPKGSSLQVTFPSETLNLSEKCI

[1] = molecular target: T4, G Protein-Coupled Receptor, GPR8 (Homo sapiens, UniProt P48146); test: Radioligand binding panel (Table S1); settings: 10 μM T1-11, n 2
T4 construct: purchased MDS Pharma Services Taiwan
T4 sequence (P48146 whole entry): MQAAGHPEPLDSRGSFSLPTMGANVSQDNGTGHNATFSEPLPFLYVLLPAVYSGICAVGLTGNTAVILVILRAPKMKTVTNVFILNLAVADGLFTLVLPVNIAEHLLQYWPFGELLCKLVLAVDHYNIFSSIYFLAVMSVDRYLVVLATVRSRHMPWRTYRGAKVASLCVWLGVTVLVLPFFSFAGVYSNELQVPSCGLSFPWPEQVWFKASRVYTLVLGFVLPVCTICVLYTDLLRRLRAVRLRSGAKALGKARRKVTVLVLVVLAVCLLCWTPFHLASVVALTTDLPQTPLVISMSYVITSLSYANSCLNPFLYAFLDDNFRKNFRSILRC

[2] = molecular target: T5, Leukotriene, Cysteinyl CysLT2 (Homo sapiens, UniProt Q9NS75); test: Radioligand binding panel (Table S1); settings: 10 μM T1-11, n 2
T5 construct: purchased MDS Pharma Services Taiwan
T5 sequence (Q9NS75 whole entry): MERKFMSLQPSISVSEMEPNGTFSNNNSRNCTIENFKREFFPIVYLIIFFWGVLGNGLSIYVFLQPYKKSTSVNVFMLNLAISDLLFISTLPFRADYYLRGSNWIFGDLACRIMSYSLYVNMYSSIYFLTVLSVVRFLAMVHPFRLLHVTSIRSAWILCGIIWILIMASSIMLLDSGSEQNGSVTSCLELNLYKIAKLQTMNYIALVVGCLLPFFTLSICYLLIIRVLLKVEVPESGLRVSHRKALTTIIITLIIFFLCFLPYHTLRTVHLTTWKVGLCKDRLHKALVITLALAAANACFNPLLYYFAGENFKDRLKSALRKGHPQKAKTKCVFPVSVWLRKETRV

Melatonin MT1 = molecular target: T6, Melatonin MT1 (Homo sapiens, UniProt P48039); test: Radioligand binding panel (Table S1); settings: 10 μM T1-11, n 2
T6 construct: purchased MDS Pharma Services Taiwan
T6 sequence (P48039 whole entry): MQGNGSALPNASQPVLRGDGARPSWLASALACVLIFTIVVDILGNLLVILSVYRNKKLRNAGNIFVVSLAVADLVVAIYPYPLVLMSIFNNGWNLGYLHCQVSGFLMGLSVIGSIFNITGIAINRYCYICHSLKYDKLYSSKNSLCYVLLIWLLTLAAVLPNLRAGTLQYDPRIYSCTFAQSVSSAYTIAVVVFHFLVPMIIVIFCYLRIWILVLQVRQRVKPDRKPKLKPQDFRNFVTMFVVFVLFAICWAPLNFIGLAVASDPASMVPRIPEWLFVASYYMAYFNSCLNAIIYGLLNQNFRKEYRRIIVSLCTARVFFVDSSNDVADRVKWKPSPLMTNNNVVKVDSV

[3] = molecular target: T7, Leukotriene, Cysteinyl CysLT1 (Homo sapiens, UniProt Q9Y271); test: Radioligand binding panel (Table S1); settings: 10 μM T1-11, n 2
T7 construct: purchased MDS Pharma Services Taiwan
T7 sequence (Q9Y271 whole entry): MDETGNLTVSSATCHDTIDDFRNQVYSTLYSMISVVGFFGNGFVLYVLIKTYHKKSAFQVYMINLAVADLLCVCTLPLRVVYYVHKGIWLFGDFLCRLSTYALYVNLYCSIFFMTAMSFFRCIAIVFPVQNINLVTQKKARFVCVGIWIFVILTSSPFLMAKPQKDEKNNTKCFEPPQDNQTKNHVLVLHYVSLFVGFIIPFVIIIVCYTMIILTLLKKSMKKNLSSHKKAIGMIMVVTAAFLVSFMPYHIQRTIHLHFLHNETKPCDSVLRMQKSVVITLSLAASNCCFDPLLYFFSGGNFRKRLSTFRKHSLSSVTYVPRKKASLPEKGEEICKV

Neuropeptide Y Y1 = molecular target: T8, Neuropeptide Y Y1 (Homo sapiens, UniProt P25929); test: Radioligand binding panel (Table S1); settings: 10 μM T1-11, n 2
T8 construct: purchased MDS Pharma Services Taiwan
T8 sequence (P25929 whole entry): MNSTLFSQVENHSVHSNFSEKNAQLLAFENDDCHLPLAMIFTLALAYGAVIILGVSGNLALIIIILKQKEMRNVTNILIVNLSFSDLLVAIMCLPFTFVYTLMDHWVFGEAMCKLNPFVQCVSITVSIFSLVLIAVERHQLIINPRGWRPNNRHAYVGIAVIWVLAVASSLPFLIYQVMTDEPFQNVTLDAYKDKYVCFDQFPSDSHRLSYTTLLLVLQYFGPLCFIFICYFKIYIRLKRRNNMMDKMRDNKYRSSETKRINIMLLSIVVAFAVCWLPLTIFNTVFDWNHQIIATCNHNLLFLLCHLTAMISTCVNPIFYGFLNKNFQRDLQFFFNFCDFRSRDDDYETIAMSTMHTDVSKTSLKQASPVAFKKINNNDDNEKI

[4] = tested on: Serotonin (5-Hydroxytryptamine) 5-HT2, Non-Selective; test: Radioligand binding panel (Table S1); design: species or system rat; settings: 10 μM T1-11, n 2
Angiotensin AT1 = molecular target: T9, Angiotensin AT1 (Homo sapiens, UniProt P30556); test: Radioligand binding panel (Table S1); settings: 10 μM T1-11, n 2
T9 construct: purchased MDS Pharma Services Taiwan
T9 sequence (P30556 whole entry): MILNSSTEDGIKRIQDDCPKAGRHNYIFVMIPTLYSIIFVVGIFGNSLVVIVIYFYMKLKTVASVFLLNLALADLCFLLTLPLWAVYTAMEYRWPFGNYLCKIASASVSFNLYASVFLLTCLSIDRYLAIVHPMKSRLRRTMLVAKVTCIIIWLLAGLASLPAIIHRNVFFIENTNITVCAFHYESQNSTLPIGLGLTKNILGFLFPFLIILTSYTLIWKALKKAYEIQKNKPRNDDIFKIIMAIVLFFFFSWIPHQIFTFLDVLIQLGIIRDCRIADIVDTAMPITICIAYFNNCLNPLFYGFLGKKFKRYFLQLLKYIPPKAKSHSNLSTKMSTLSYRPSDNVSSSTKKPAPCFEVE

Neuromedin U NMU1 = molecular target: T10, Neuromedin U NMU1 (Homo sapiens, UniProt Q9HB89); test: Radioligand binding panel (Table S1); settings: 10 μM T1-11, n 2
T10 construct: purchased MDS Pharma Services Taiwan
T10 sequence (Q9HB89 whole entry): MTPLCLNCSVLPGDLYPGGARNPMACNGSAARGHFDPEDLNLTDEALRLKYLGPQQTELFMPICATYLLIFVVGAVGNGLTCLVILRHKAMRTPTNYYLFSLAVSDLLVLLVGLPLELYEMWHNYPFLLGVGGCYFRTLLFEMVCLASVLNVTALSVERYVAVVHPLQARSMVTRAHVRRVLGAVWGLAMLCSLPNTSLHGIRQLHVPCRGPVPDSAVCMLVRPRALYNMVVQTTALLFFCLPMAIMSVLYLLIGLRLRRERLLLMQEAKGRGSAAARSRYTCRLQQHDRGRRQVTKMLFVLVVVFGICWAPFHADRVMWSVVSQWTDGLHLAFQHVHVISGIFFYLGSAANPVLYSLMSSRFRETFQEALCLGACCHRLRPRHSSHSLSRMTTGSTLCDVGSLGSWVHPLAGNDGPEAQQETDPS

Transporter, Choline = molecular target: T11, Transporter, Choline (Rattus norvegicus, UniProt Q9JMD7); test: Radioligand binding panel (Table S1); settings: 10 μM T1-11, n 2
T11 construct: purchased MDS Pharma Services Taiwan

Prostanoid DP = molecular target: T12, Prostanoid DP (Homo sapiens, UniProt Q13258); test: Radioligand binding panel (Table S1); settings: 10 μM T1-11, n 2
T12 construct: purchased MDS Pharma Services Taiwan
T12 sequence (Q13258 whole entry): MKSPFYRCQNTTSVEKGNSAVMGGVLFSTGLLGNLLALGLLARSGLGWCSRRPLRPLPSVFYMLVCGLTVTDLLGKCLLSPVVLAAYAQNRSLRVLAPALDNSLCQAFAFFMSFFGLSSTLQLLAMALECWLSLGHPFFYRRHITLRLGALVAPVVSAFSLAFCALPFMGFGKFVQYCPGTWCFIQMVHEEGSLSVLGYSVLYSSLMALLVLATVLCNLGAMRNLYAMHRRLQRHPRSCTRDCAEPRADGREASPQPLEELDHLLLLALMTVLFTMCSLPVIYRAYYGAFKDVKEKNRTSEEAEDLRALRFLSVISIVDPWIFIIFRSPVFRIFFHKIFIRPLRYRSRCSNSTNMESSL

Phosphodiesterase PDE5 = molecular target: T13, Phosphodiesterase PDE5 (Homo sapiens, UniProt O76074); test: Radioligand binding panel (Table S1); settings: 10 μM T1-11, n 2
T13 construct: purchased MDS Pharma Services Taiwan

[5] = tested on: Atrial Natriuretic Factor (ANF); test: Radioligand binding panel (Table S1); design: species or system guinea pig; settings: 10 μM T1-11, n 2
BDNF = test: Cortical BDNF transcript, quantitative RT-PCR; type: in vivo; settings: R6/2 mice, 0.05 mg/ml in drinking water
Experimental: Total RNA was isolated from the cortex of the indicated mice using the TriReagent kit (Molecular Research Center, Cincinnati, OH, USA), treated with RNase-free DNase (RQ1; Promega) to remove potential contamination by genomic DNA, and transcribed into complementary (c)DNA using Superscript* II reverse transcriptase. A real-time quantitative PCR was performed using a TaqMan kit (PE Applied Biosystems, Foster City, CA, USA) on a TaqMan ABI 7700 Sequence Detection System (PE Applied Biosystems) using heat-activated TaqDNA polymerase (Amplitaq Gold; PE Applied Biosystems). The PCR mixtures were incubated at 50°C for 2 min and 95°C for 10 min, and then 40 PCR cycles were conducted (95°C for 15 s and 65°C for 1 min). The sequences of primers are listed below: for BDNF (the target gene), 5′-[…]-3′ and 5′-[…]-3′; and for GAPDH (the reference gene), 5′[…]-3′ and 5′-[…]-3′. Independent reverse-transcription PCRs were performed using the same cDNA for both the indicated target gene and reference gene (GAPDH). […] Data were analyzed using ABI 7700 operating software to determine the threshold cycle (CT) above the background for each reaction. The relative transcript amount of the target gene, which was calculated using standard curves of serial RNA dilutions, was normalized to that of GAPDH of the same RNA.

[6] = molecular target: T14, Adenosine transporter (ENT1) (Cavia porcellus, UniProt H0V4R7); test: Radioligand binding assay; design: species or system guinea pig
T14 construct: Membrane fractions collected from the cerebral cortex of Duncan Hartley derived guinea pigs; tissue MDS Pharma Services Taiwan; host or cells: guinea pig cerebral cortex
T14 sequence (H0V4R7 1-461): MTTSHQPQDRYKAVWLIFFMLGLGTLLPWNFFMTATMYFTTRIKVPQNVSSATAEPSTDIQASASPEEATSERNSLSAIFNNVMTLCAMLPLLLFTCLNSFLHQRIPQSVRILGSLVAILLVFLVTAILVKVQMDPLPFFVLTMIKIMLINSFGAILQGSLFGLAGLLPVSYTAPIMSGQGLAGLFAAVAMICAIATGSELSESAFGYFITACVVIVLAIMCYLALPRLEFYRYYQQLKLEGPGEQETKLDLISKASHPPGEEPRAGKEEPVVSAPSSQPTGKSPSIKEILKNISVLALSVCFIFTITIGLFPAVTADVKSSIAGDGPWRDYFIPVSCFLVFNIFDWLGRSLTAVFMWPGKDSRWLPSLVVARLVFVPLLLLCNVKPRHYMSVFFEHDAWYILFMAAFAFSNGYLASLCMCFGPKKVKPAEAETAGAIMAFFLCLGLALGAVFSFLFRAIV

Leptin = molecular target: T15, Leptin (Mus musculus, UniProt P48356); test: Radioligand binding panel (Table S1); settings: 10 μM T1-11, n 2
T15 construct: purchased MDS Pharma Services Taiwan
T15 sequence (P48356 22-1162): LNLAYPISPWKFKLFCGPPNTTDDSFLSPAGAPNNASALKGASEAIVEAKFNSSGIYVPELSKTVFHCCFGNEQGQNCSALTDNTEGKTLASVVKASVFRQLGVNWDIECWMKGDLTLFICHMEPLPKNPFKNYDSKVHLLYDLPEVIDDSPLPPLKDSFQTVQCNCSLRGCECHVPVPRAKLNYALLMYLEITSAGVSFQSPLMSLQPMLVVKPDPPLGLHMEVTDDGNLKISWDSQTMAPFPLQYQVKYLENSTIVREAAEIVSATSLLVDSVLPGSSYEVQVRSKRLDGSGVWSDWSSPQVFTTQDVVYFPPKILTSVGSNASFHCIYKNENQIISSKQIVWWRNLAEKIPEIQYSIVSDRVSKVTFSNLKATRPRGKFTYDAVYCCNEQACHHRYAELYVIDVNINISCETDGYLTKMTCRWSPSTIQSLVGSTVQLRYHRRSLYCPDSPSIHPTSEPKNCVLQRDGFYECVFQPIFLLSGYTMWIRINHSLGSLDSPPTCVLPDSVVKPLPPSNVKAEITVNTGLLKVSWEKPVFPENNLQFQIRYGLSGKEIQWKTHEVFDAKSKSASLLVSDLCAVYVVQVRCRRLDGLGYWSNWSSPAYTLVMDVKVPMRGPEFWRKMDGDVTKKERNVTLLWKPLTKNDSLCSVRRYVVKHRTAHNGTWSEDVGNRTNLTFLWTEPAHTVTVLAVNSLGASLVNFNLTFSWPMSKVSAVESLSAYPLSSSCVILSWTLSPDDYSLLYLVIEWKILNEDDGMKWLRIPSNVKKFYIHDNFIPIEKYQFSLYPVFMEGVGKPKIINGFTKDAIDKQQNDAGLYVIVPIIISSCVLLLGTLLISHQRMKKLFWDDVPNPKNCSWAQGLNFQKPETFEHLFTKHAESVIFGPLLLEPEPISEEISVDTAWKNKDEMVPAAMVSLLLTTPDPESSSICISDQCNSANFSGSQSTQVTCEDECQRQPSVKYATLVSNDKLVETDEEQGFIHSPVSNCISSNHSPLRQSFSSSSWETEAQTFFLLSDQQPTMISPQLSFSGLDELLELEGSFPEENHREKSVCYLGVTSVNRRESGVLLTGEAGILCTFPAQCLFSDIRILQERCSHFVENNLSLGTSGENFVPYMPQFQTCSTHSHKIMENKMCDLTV

[7] = CHO-K1 membranes, 3H-AB-MECA 0.5 nM
[8] = guinea pig cerebral cortex membranes, 3H-NBTI 0.5 nM

T1 sequence (P30874 whole entry): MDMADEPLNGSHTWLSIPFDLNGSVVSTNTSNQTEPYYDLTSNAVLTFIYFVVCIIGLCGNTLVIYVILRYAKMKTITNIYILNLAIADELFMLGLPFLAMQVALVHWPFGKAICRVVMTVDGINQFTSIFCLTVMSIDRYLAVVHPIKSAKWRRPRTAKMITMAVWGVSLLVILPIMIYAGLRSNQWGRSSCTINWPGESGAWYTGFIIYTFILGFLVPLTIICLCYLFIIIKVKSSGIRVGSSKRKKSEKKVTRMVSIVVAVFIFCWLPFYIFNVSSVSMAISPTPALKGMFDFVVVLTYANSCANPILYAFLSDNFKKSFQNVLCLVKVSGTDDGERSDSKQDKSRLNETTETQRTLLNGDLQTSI

`OC[C@H]1O[C@@H](n2cnc3c(NCc4ccc(O)cc4)ncnc32)[C@H](O)[C@@H]1O` [T1-11, N ^6-(4-hydroxybenzyl)adenine riboside] showed an inhibition at 10 µM (Somatostatin sst2) of 9%, an inhibition at 10 µM (A3 adenosine receptor; 10 μM T1-11, n 2) of 103% and a pIC50 (A3 adenosine receptor; [7]) of 6.96. The pKi (A3 adenosine receptor; [7]) was 7.00, the inhibition at 10 µM (Prostanoid EP4) was -6% and the inhibition at 10 µM [1] was 15%. For the same compound, the inhibition at 10 µM [2] was 10%, the inhibition at 10 µM (Melatonin MT1) was -4% and the inhibition at 10 µM [3] was -4%. The inhibition at 10 µM (Neuropeptide Y Y1) was 6%, the “% Inhibition” value [4] was 15% and the inhibition at 10 µM (Angiotensin AT1) was -5%. The inhibition at 10 µM (Neuromedin U NMU1) was -1%, the inhibition at 10 µM (Transporter, Choline) was -10% and the inhibition at 10 µM (Prostanoid DP) was 17%. For the same compound, the inhibition at 10 µM (Phosphodiesterase PDE5) was 4%, the “% Inhibition” value [5] was 5% and the “Cortical BDNF” value (BDNF) was “contained more cortical BDNF than R6/2 mice that received no treatment”. The inhibition at 10 µM ([6]; 10 μM T1-11, n 2) was 84%, the pIC50 [6, 8] was 5.80 and the pKi [6, 8] was 6.27. For the same compound, the inhibition at 10 µM (Leptin) was 6%.
